From PubChem BioAssay (NCI)
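Grown in 96-well plates, cells were treated for 48 hours with each compound at five concentrations. Insufficient inhibition: endpoint recorded as highest concentration tested. At the GI50, growth is halved. TGI: concentration producing complete growth inhibition.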

What was measured:
Test in all cases: NCI tumour cell line growth inhibition, 48 h
[1] = tested on: ACHN renal
[2] = tested on: HCT-116 colon
[3] = tested on: HOP-92 NSCLC
[4] = tested on: LOX IMVI melanoma
[5] = tested on: MOLT-4 leukemia
[6] = tested on: NCI-H460 lung
[7] = tested on: PC-3 prostate
[8] = tested on: SR leukemia
[9] = tested on: DMS 114 small cell lung
[10] = tested on: M19-MEL melanoma
[11] = tested on: LXFL 529 NSCLC

| SMILES | TGI [1] | TGI [2] | TGI [3] | TGI [4] | TGI [5] | TGI [6] | TGI [7] | TGI [8] | TGI [9] | TGI [10] | GI50 [1] | GI50 [3] | GI50 [6] | GI50 [7] | GI50 [8] | TGI [11] | GI50 [2] | GI50 [4] | GI50 [5] | GI50 [10] |
| --- | --- | --- | --- | --- | --- | --- | --- | --- | --- | --- | --- | --- | --- | --- | --- | --- | --- | --- | --- | --- |
| Cc1ccc(CCCC(=O)O)cc1C | > 100 µM | > 100 µM | > 100 µM | > 100 µM | > 100 µM | > 100 µM | > 100 µM | > 100 µM |  |  |  |  |  |  |  |  |  |  |  |  |
| CSc1nc(NC2OC(CO)C(O)C(O)C2O)c(N)c(=O)n1C (configuration not stated) |  | > 100 µM | > 100 µM | > 100 µM | > 100 µM | > 100 µM |  |  | > 100 µM | > 100 µM |  |  |  |  |  |  |  |  |  |  |
| N=C(N)c1ccc(-c2ccc(-c3ccccc3)o2)cc1 | 3.26 µM |  | 4.14 µM |  |  | 3.65 µM | 5.97 µM | 5.29 µM |  |  | 1.67 µM | 1.95 µM | 1.93 µM | 2.28 µM | 1.67 µM |  |  |  |  |  |
| Nc1cccc2cc(S(=O)(=O)Nc3ccc(C(=O)O)cc3)ccc12 | > 100 µM | > 100 µM | > 100 µM | > 100 µM |  | > 100 µM | > 100 µM | > 100 µM |  |  |  |  |  |  |  |  |  |  |  |  |
| NC(=O)OCc1c(O)c2c(c(O)c1COC(N)=O)C(=O)C=CC2=O | > 100 µM | > 100 µM | > 100 µM |  | > 100 µM |  |  | > 100 µM | > 100 µM | 11.8 µM |  |  |  |  |  | > 100 µM |  |  |  |  |
| COc1ccc(C2C(Cl)C(=O)N2NC(=O)c2ccc(NC(C)=O)cc2)cc1OC (configuration not stated) | > 100 µM | > 100 µM | > 100 µM |  | > 100 µM | > 100 µM |  | > 100 µM |  | > 100 µM |  |  |  |  |  | > 100 µM |  |  |  |  |
| O=C(Nc1ccc(-n2cc(-c3ccncc3)c(-c3ccc(O)c(Cl)c3)n2)cc1)c1ccc(Cl)c(Cl)c1 | > 32.5 µM | > 32.5 µM | 20.5 µM | 2.88 µM | > 32.5 µM | > 32.5 µM | > 32.5 µM | > 32.5 µM |  |  | 1.34 µM | 0.819 µM | 1.58 µM | 1.35 µM | 1.19 µM |  | 1.23 µM | 0.779 µM | 1.37 µM |  |
| CC(C)c1cccc(C(C)C)c1NC(=S)Nc1ccccc1 | > 100 µM | > 100 µM | > 100 µM | > 100 µM | > 100 µM | > 100 µM |  | > 100 µM | > 100 µM | > 100 µM |  |  |  |  |  | > 100 µM |  |  |  |  |
| CCN(CC)CCSc1nc2c([N+](=O)[O-])cccc2[nH]1 |  |  | > 100 µM | > 100 µM | > 100 µM |  |  |  | > 100 µM | > 100 µM |  |  |  |  |  | > 100 µM |  |  |  |  |
| CC[n+]1c(/C=C/c2ccc(N(CCCl)CCCl)cc2)ccc2cc(Br)ccc21 |  | 482 µM |  | 2.87 µM |  | 11.4 µM |  |  | 15.2 µM |  | 1060 µM | 92.7 µM |  |  | 132 µM | 1.99 µM |  |  | 109 µM | 134 µM |
| O=C1c2ccccc2-c2ccc(N(Cc3ccc(Br)cc3)Cc3ccc(Br)cc3)cc21 | > 100 µM | > 100 µM | > 100 µM | > 100 µM | > 100 µM | > 100 µM | > 100 µM | > 100 µM |  |  |  |  |  |  |  |  |  |  |  |  |
| CC(C)=CCC/C(C)=C/CC/C(C)=C/C(O)c1ccccc1 (configuration not stated) | 31.2 µM | 32.2 µM |  | 35.9 µM |  | 35.3 µM |  | 44.1 µM | 39.4 µM | 34.6 µM |  |  |  |  |  | 31.8 µM |  |  |  |  |
| CNC1=C(C)C(=O)C2=C(C1=O)C(COC(N)=O)C1(OC)C3NC3CN21 (configuration not stated) |  | > 100 µM |  | 1.41 µM | > 100 µM | 0.251 µM | 41.8 µM | > 100 µM |  |  |  |  |  |  |  |  |  |  |  |  |
